For experiment [1], the target named is T1, AHR (Homo sapiens, UniProt P35869).
T1 sequence (P35869 11-848): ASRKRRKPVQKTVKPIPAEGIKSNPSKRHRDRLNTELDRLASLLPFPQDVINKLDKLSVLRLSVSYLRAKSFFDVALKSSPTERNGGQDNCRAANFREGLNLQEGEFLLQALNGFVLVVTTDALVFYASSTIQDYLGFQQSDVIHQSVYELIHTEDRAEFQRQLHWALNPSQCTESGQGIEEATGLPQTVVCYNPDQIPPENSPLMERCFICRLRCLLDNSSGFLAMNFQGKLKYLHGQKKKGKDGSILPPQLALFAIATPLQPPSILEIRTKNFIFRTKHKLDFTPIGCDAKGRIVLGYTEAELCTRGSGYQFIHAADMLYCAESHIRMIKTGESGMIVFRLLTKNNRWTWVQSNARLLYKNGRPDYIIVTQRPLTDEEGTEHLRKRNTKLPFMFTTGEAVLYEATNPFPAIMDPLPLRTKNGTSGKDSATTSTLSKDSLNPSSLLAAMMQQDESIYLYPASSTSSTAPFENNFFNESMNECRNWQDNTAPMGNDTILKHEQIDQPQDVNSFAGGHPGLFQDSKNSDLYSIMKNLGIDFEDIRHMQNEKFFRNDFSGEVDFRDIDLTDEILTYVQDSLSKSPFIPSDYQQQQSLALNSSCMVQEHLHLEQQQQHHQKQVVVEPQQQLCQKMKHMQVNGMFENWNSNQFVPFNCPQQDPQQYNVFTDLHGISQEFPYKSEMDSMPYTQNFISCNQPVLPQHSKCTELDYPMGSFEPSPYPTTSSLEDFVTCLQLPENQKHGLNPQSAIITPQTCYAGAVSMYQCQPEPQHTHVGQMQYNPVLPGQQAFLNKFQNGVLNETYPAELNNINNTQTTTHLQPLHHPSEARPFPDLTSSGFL
The experiment is described as follows: In vitro assay 1: antagonism in human cell line (transactivation assay, U87 cells prestimulated with kynurenic acid, DRE firefly luciferase reporter). It is filed as cell-based. On the set-up: host or cells: U87 glioblastoma cells, stably transfected with DRE firefly luciferase and renilla reporter constructs. To be noted: 150 uM kynurenic acid, 20 hours, read-out: Assay 1: AHR-luc Hum Antagonism IC50. In outline:
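Antagonism measured after kynurenic acid prestimulation in U87 cells that express AHR endogenously and stably harbor a firefly luciferase gene under DRE control plus a constitutive renilla construct. Positive and negative controls served for normalization.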
In general terms: In a reporter assay the amount or activity of a reporter protein is the signal.

The target of experiment [2] is T1, AHR. The experiment is described as follows: In vitro assay 2: agonism in human cell line (transactivation assay, U87 cells, DRE firefly luciferase reporter). The arrangement: host or cells: U87 glioblastoma cells, stably transfected with DRE firefly luciferase and renilla reporter constructs. It is filed as cell-based. To be noted: no kynurenic acid, 20 hours, read-out: Assay 2: AHR-luc Hum Agonism IC50. In outline:
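Agonist readout: DRE firefly luciferase, with constitutive renilla reporter, in stably transfected U87 cells expressing AHR endogenously. Normalization used positive control (300 uM kynurenic acid) and negative control.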

The structures appear in SMILES notation. pIC50: −log10 of the molar value.

Broadly, the pIC50 is the IC50 on a negative log10 scale, so that one unit is a factor of ten.

Consider `O=C(NC[C@H](O)C(F)(F)F)c1cc(-c2ccc(Cl)cc2)nn(-c2cnoc2)c1=O` [Example 235, 6-(4-Chlorophenyl)-2-(1,2-oxazol-4-yl)-3-oxo-N-[(2S)-3,3,3-trifluoro-2-hydroxypropyl]-2,3-dihydropyridazine-4-carboxamide], for which the negative logarithm of the IC50 (pIC50) in experiment [1] was 8.05; in experiment [2] it was under 4.70.

For the compound `C[C@@H](CO)NC(=O)c1cc(-c2ccc(C(F)(F)F)cc2)nn(-c2cnsc2)c1=O` [Example 205, N-[(2S)-1-Hydroxypropan-2-yl]-3-oxo-2-(1,2-thiazol-4-yl)-6-[4-(trifluoromethyl)phenyl]-2,3-dihydropyridazine-4-carboxamide], the pIC50 in experiment [1] is 8.97; in experiment [2], under 4.70.

`CC(C)[C@@H](CO)NC(=O)c1cc(-c2ccc(C(F)(F)F)nc2)nn(-c2cncc(F)c2)c1=O` [Example 337, 2-(5-Fluoropyridin-3-yl)-N-[(2S)-1-hydroxy-3-methylbutan-2-yl]-3-oxo-6-[6-(trifluoromethyl)pyridin-3-yl]-2,3-dihydropyridazine-4-carboxamide]: the pIC50 in experiment [1] is 7.68; in experiment [2], under 4.70.

As for `O=C(N[C@H]1CCCC(F)(F)[C@@H]1O)c1cc(-c2ccc(OC(F)(F)F)cc2)nn(-c2cccnc2)c1=O` (single isomer, unassigned; enantiomer 2) [Example 142, N-[(trans)-3,3-Difluoro-2-hydroxycyclohexyl]-3-oxo-2-(pyridin-3-yl)-6-[4-(trifluoromethoxy)phenyl]-2,3-dihydropyridazine-4-carboxamide, Enantiomer 2], the negative logarithm of the IC50 (pIC50) in experiment [1] was 8.08; in experiment [2] it was under 4.70.

On to `O=C(N[C@H]1COC[C@@H]1O)c1cc(-c2ccc(OC(F)(F)F)cc2)nn(-c2cccnc2)c1=O` (racemic) [Example 160, N-[(trans)-4-Hydroxytetrahydrofuran-3-yl]-3-oxo-2-(pyridin-3-yl)-6-[4-(trifluoromethoxy)phenyl]-2,3-dihydropyridazine-4-carboxamide], for which the pIC50 was 7.10 in experiment [1] and under 4.70 in experiment [2].

With `Cn1cc(-n2nc(-c3ccc(Cl)cc3)cc(C(=O)N[C@H](CO)C(N)=O)c2=O)cn1` [Example 289, N-[(2R)-1-Amino-3-hydroxy-1-oxopropan-2-yl]-6-(4-chlorophenyl)-2-(1-methyl-1H-pyrazol-4-yl)-3-oxo-2,3-dihydropyridazine-4-carboxamide], the pIC50 in experiment [1] is 6.06; in experiment [2], under 4.70.

Turning to `O=C(NC[C@H](O)C(F)(F)F)c1cc(-c2ccc(Cl)cc2)nn(-c2cnn(C(F)F)c2)c1=O` [Example 256, 6-(4-Chlorophenyl)-2-[1-(difluoromethyl)-1H-pyrazol-4-yl]-3-oxo-N-[(2S)-3,3,3-trifluoro-2-hydroxypropyl]-2,3-dihydropyridazine-4-carboxamide], the pIC50 is 7.59 in experiment [1] and under 4.70 in experiment [2].

In the case of `Cn1cc(-n2nc(-c3ccc(Cl)cc3)cc(C(=O)N[C@@H]3COC[C@@H]3O)c2=O)cn1` (racemic) [Example 43, 6-(4-Chlorophenyl)-N-[(cis)-4-hydroxytetrahydrofuran-3-yl]-2-(1-methyl-1H-pyrazol-4-yl)-3-oxo-2,3-dihydropyridazine-4-carboxamide], the pIC50 in experiment [1] is 7.64; in experiment [2], under 4.70.

With `O=C(N[C@H]1CCCC(F)(F)[C@@H]1O)c1cc(-c2ccc(Cl)cc2)nn(-c2cccnc2)c1=O` (single isomer, unassigned; enantiomer 2) [Example 145, 6-(4-Chlorophenyl)-N-[(trans)-3,3-difluoro-2-hydroxycyclohexyl]-3-oxo-2-(pyridin-3-yl)-2,3-dihydropyridazine-4-carboxamide, Enantiomer 2], the pIC50 in experiment [1] is 8.16; in experiment [2], under 4.70.

On to `O=C(N[C@@H]1COC[C@@H]1O)c1cc(-c2ccc(C(F)F)cc2)nn(-c2cccnc2)c1=O` (single isomer, unassigned) [Example 318, 6-[4-(Difluoromethyl)phenyl]-N-[(cis)-4-hydroxy-tetrahydrofuran-3-yl]-3-oxo-2-(pyridin-3-yl)-2,3-dihydropyridazine-4-carboxamide], for which the pIC50 in experiment [1] is 7.49; in experiment [2] it was under 4.70.

Regarding `C[C@]1(O)CCC[C@H]1NC(=O)c1cc(-c2ccc(OC(F)(F)F)cc2)nn(-c2cccnc2)c1=O` (relative stereo) [Example 328, N-[(cis)-2-Hydroxy-2-methylcyclopentyl]-3-oxo-2-(pyridin-3-yl)-6-[4-(trifluoromethoxy)phenyl]-2,3-dihydropyridazine-4-carboxamide], the negative-log IC50 (pIC50) is 7.51 in experiment [1] and under 4.70 in experiment [2].

Regarding `O=C(NCC1(O)CCC1)c1cc(-c2ccc(Cl)cc2)nn(-c2cnsc2)c1=O` [Example 200, 6-(4-Chlorophenyl)-N-[(1-hydroxycyclobutyl)methyl]-3-oxo-2-(1,2-thiazol-4-yl)-2,3-dihydropyridazine-4-carboxamide], the pIC50 in experiment [1] is 9.13; in experiment [2] it was under 4.70.

Regarding `O=C(N[C@H]1CCCC(F)(F)[C@@H]1O)c1cc(-c2ccc(OC(F)(F)F)cc2)nn(-c2cccnc2)c1=O` (relative stereo) [Example 140, N-[(trans)-3,3-Difluoro-2-hydroxycyclohexyl]-3-oxo-2-(pyridin-3-yl)-6-[4-(trifluoromethoxy)phenyl]-2,3-dihydropyridazine-4-carboxamide], the negative-log IC50 (pIC50) in experiment [1] was 8.02; in experiment [2], under 4.70.

Consider `O=C(N[C@H]1CCCC[C@H]1O)c1cc(-c2ccc(Cl)cc2)nn(-c2ccnnc2)c1=O` [Example 164, 3-(4-Chlorophenyl)-N-[(1S,2R)-2-hydroxycyclohexyl]-6-oxo-6H-1,4′-bipyridazine-5-carboxamide], for which the values for the negative-log IC50 (pIC50) in experiment [1] and in experiment [2] were 6.80 and under 4.70, respectively.

Take `Cn1cc(-n2nc(-c3ccc(Cl)cc3)cc(C(=O)NC(CO)C(F)(F)F)c2=O)cn1` (racemic) [Example 33, 6-(4-Chlorophenyl)-2-(1-methyl-1H-pyrazol-4-yl)-3-oxo-N-[(2RS)-1,1,1-trifluoro-3-hydroxypropan-2-yl]-2,3-dihydropyridazine-4-carboxamide]: the pIC50 in experiment [1] is 8.58; in experiment [2], under 4.70.

As for `Cn1cc(-n2nc(-c3ccc(Cl)cc3)cc(C(=O)N[C@@H]3CCC[C@]3(C)O)c2=O)cn1` (single isomer, unassigned) [Example 336, 6-(4-Chlorophenyl)-N-[(cis)-2-hydroxy-2-methylcyclopentyl]-2-(1-methyl-1H-pyrazol-4-yl)-3-oxo-2,3-dihydropyridazine-4-carboxamide], the results for the pIC50 in experiment [1] and in experiment [2] were 7.37 and under 4.70, respectively.

For `Cn1cc(-n2nc(-c3ccc(OC(F)(F)F)cc3)cc(C(=O)N[C@@H]3COC[C@@H]3O)c2=O)cn1` (single isomer, unassigned; enantiomer 1) [Example 56, N-[(cis)-4-Hydroxytetrahydrofuran-3-yl]-2-(1-methyl-1H-pyrazol-4-yl)-3-oxo-6-[4-(trifluoromethoxy)phenyl]-2,3-dihydropyridazine-4-carboxamide, Enantiomer 1], the pIC50 in experiment [1] was 7.59; in experiment [2], under 4.70.

In the case of `Cn1cc(-n2nc(-c3ccc(C(F)F)cc3)cc(C(=O)N[C@H]3CCC[C@@H]3O)c2=O)cn1` (relative stereo) [Example 52, 6-[4-(Difluoromethyl)phenyl]-N-[(trans)-2-hydroxycyclopentyl]-2-(1-methyl-1H-pyrazol-4-yl)-3-oxo-2,3-dihydropyridazine-4-carboxamide], the pIC50 in experiment [1] was 7.94; in experiment [2], under 4.70.

For the compound `C[C@H](NC(=O)c1cc(-c2ccc(CF)cc2)nn(-c2cccnc2)c1=O)C(C)(C)O` [Example 288, 6-[4-(Fluoromethyl)phenyl]-N-[(2S)-3-hydroxy-3-methylbutan-2-yl]-3-oxo-2-(pyridin-3-yl)-2,3-dihydropyridazine-4-carboxamide], the figures for the pIC50 in experiment [1] and in experiment [2] were 6.09 and under 4.70, respectively.

Take `O=C(N[C@@H]1CSC[C@@H]1O)c1cc(-c2ccc(C(F)(F)F)cc2)nn(-c2cccnc2)c1=O` (relative stereo) [Example 290, N-cis-4-Hydroxytetra-hydrothiophen-3-yl-3-oxo-2-(pyridin-3-yl)-6-[4-(trifluoromethyl)phenyl]-2,3-dihydropyridazine-4-carboxamide]: the pIC50 in experiment [1] is 8.55; in experiment [2], under 4.70.

These data come from patent US12522594B2, “2-heteroaryl-3-oxo-2,3-dihydropyridazine-4-carboxamides for the treatment of cancer” (Deutsches Krebsforschungszentrum, priority 2017, dated 2026).
